# System: neutrophils
# Conditions: mice; 5-FU 150 mg/kg i.p. or cyclophosphamide 300 mg/kg i.p.; lasts for at least one week
# Procedure: At varying time points after treatment, blood samples are taken from the mice and analyzed for different cell types including neutrophils.
# As diagrammed in FIG. 10, mice are treated with Compound #2 for 14 days by intraperitoneal injections (50 mg/kg) twice a day. On day 12 within this treatment period, a cohort of mice receives an injection of a chemotherapeutic drug; either 5-fluorouracil (150 mg/kg i.p.) or cyclophosphamide (300 mg/kg i.p.). On the third day after treatment with Compound #2, blood is obtained by cardiac puncture from one cohort of mice to determine a complete blood count (CBC). Other cohorts of mice are bled and analyzed (CBC) on days 5, 7, 9 and 15 after Compound #2 treatment.
smiles,measurement,value
O=P1(N(CCCl)CCCl)NCCCO1 (stereo not shown) [cyclophosphamide],neutropenia caused by the chemotherapeutic drug,severe neutropenia
